The target in this series is GAL4 DBD (1-147)-CfEcR(DEF)/VP16AD-βRXREF-LmUSPEF (Choristoneura fumiferana, UniProt O77240). Description: cell-based. The conditions noted are these: for Fold Induction, 27-63 Assay, 3.3 uM: 3.3 uM ligand; for Fold Induction, 27-63 Assay, 3.3 uM / Fold Induction, 27-63 Assay, 33 uM: RLU ligand treated / RLU DMSO treated cells; for Fold Induction, 27-63 Assay, 3.3 uM / Fold Induction, 27-63 Assay, 33 uM / EC50: average of two wells; for Fold Induction, 27-63 Assay, 33 uM: 33 uM ligand; for 27-63 assay Rel Max FI: maximum fold induction at any concentration relative to that of GS-E ligand, CHO 27-63 cells; for EC50: read-out: 27-63 assay EC50, CHO 27-63 stable cell line, luciferase reporter.

With `CCc1ccc(C(=O)NN(C(=O)c2cc(C)cc(C)c2)C(C)(C)C)cc1Cl` [RG-101864], the “Fold Induction, 27-63 Assay, 3.3 uM” value is 1807; the “Fold Induction, 27-63 Assay, 33 uM” value was determined as 1464; the “27-63 assay Rel Max FI” value was 0.750; the EC50 turned out to be 343 nM.

`CC(C)(C)N(NC(=O)c1c(F)cccc1F)C(=O)c1cc(Cl)cc(Cl)c1` [RG-100801]: the “Fold Induction, 27-63 Assay, 3.3 uM” value was 1341; the “Fold Induction, 27-63 Assay, 33 uM” value was determined as 1244; the “27-63 assay Rel Max FI” value is recorded as 0.936; the half-maximal effective concentration (EC50) was 2080 nM.

Regarding `COc1cccc(C(=O)NN(C(=O)c2cc(Cl)cc(Br)c2)C(C)(C)C)c1C` [RG-101408], the “Fold Induction, 27-63 Assay, 3.3 uM” value is 2445; the “Fold Induction, 27-63 Assay, 33 uM” value was 1886; the “27-63 assay Rel Max FI” value was 1.185; the EC50 amounted to 336 nM.

As to `Cc1cc(C)cc(C(=O)N(NC(=O)c2cc3c(cc2Cl)OCO3)C(C)(C)C)c1` [RG-101171], the “Fold Induction, 27-63 Assay, 3.3 uM” value was 395; the “Fold Induction, 27-63 Assay, 33 uM” value turned out to be 1357; the “27-63 assay Rel Max FI” value was found to be 0.877; the EC50 was determined as 4020 nM.

In the case of `COCc1c(OC)cccc1C(=O)NN(C(=O)c1cc(C)cc(C)c1)C(C)(C)C` [RG-115117], the “Fold Induction, 27-63 Assay, 33 uM” value is on record as 221.

Consider `COc1cc(C)ccc1C(=O)N(NC(=O)c1cccc(OC)c1C)C(C)(C)C` [RG-100769], for which the “Fold Induction, 27-63 Assay, 3.3 uM” value is reported as 1595; the “Fold Induction, 27-63 Assay, 33 uM” value is 1556; the “27-63 assay Rel Max FI” value worked out at 0.735; the EC50 was 196 nM.

On to `CCc1ccc(C(=O)NN(C(=O)c2cc(C)c(C)c(Cl)c2)C(C)(C)C)cc1` [RG-101863], for which the “Fold Induction, 27-63 Assay, 3.3 uM” value amounted to 1705; the “Fold Induction, 27-63 Assay, 33 uM” value is on record as 636; the “27-63 assay Rel Max FI” value is recorded as 1.043; the EC50 was 1000 nM.

Regarding `Cc1cc(C)cc(C(=O)N(NC(=O)c2ccc3c(c2Br)OCCO3)C(C)(C)C)c1` [RG-101340], the “Fold Induction, 27-63 Assay, 3.3 uM” value stood at 1624; the “Fold Induction, 27-63 Assay, 33 uM” value stood at 1549; the “27-63 assay Rel Max FI” value was 0.964; the 50% effective concentration (EC50) is 240 nM.

As for `COc1cccc(C(=O)NN(C(=O)c2cc(C)ccc2Cl)C(C)(C)C)c1Cl` [RG-101248], the “Fold Induction, 27-63 Assay, 3.3 uM” value came to 146; the “Fold Induction, 27-63 Assay, 33 uM” value was 1033; the “27-63 assay Rel Max FI” value amounted to 0.790; the EC50 stood at 5040 nM.

Regarding `CCc1ccc(C(=O)NN(C(=O)c2cc(C)cc(Cl)c2)C(C)(C)C)cc1` [RG-101774], the “Fold Induction, 27-63 Assay, 3.3 uM” value turned out to be 1807; the “Fold Induction, 27-63 Assay, 33 uM” value was 1359; the “27-63 assay Rel Max FI” value is reported as 0.795; the EC50 came out at 359 nM.

For the compound `CCc1c(C(=O)NN(C(=O)c2cccc(C)c2)C(C)(C)C)ccc2c1OCCO2` [RG-101036], the “Fold Induction, 27-63 Assay, 3.3 uM” value was 1721; the “Fold Induction, 27-63 Assay, 33 uM” value was determined as 1459; the “27-63 assay Rel Max FI” value is on record as 0.724; the EC50 was found to be 177 nM.

Consider `CCc1ccc(C(=O)NN(C(=O)c2ccccc2CC)C(C)(C)C)cc1` [RG-102592], for which the “Fold Induction, 27-63 Assay, 3.3 uM” value was 7; the “Fold Induction, 27-63 Assay, 33 uM” value amounted to 1265; the “27-63 assay Rel Max FI” value is 0.798; the EC50 is 7770 nM.

Turning to `C=Cc1c(OC)cccc1C(=O)NN(C(=O)c1cc(C)cc(C)c1)C(C)(C)C` [RG-102021], the “Fold Induction, 27-63 Assay, 33 uM” value stood at 2951.

Regarding `CCc1c(OC)cccc1C(=O)NN(C(=O)c1cc(OC)cc(OC)c1)C(C)(C)C` [RG-100778], the “Fold Induction, 27-63 Assay, 3.3 uM” value is given as 2159; the “Fold Induction, 27-63 Assay, 33 uM” value is listed as 2312; the “27-63 assay Rel Max FI” value was 1.342; the EC50 was 678 nM.

As to `CCc1cccc(C(=O)NN(C(=O)c2cc(C)cc(C)c2)C(C)(C)C)c1C` [RG-101691], the “Fold Induction, 27-63 Assay, 3.3 uM” value is listed as 2249; the “Fold Induction, 27-63 Assay, 33 uM” value is 2073; the “27-63 assay Rel Max FI” value was found to be 0.969; the EC50 worked out at 250 nM.

As to `CC(C)(C)N(NC(=O)c1ccc2c(c1)OCO2)C(=O)c1ccc(F)cc1Cl` [RG-101048], the “Fold Induction, 27-63 Assay, 3.3 uM” value is on record as 19; the “Fold Induction, 27-63 Assay, 33 uM” value came out at 1453; the “27-63 assay Rel Max FI” value was determined as 0.708; the EC50 is 8420 nM.

For the compound `COc1cccc(C(=O)NN(C(=O)c2ccc(Cl)cc2F)C(C)(C)C)c1C` [RG-100929], the “Fold Induction, 27-63 Assay, 3.3 uM” value worked out at 1080; the “Fold Induction, 27-63 Assay, 33 uM” value was determined as 988; the “27-63 assay Rel Max FI” value was found to be 0.770; the EC50 is 1050 nM.

Regarding `Cc1cc(C)cc(C(=O)N(NC(=O)c2ccc3c(c2)CCCC3)C(C)(C)C)c1` [RG-101887], the “Fold Induction, 27-63 Assay, 3.3 uM” value came out at 1142; the “Fold Induction, 27-63 Assay, 33 uM” value turned out to be 1107; the “27-63 assay Rel Max FI” value is recorded as 0.675; the concentration giving a half-maximal response (EC50) was 351 nM.

Regarding `COc1cc(Cl)ccc1C(=O)N(NC(=O)c1cccc(OC)c1C)C(C)(C)C` [RG-100848], the “Fold Induction, 27-63 Assay, 3.3 uM” value was 1181; the “Fold Induction, 27-63 Assay, 33 uM” value worked out at 1151; the “27-63 assay Rel Max FI” value is on record as 0.765; the EC50 came out at 322 nM.

Take `Cc1cc(C)cc(C(=O)N(NC(=O)c2ccc(CC#N)cc2)C(C)(C)C)c1` [RG-100875]: the “Fold Induction, 27-63 Assay, 3.3 uM” value is listed as 34; the “Fold Induction, 27-63 Assay, 33 uM” value was determined as 1592; the “27-63 assay Rel Max FI” value came out at 1.004; the EC50 is 8920 nM.

As to `CCc1c(C(=O)NN(C(=O)c2cc(C)cc(C)c2)C(C)(C)C)ccc2c1OC(C)O2` (centres unmarked) [RG-101659], the “Fold Induction, 27-63 Assay, 3.3 uM” value was 2283; the “Fold Induction, 27-63 Assay, 33 uM” value was 1896; the “27-63 assay Rel Max FI” value came to 1.009; the EC50 is 347 nM.

Regarding `Cc1cc(C)cc(C(=O)N(NC(=O)c2cccc(OC(F)(F)F)c2C)C(C)(C)C)c1` [RG-101692], the “Fold Induction, 27-63 Assay, 3.3 uM” value worked out at 1798; the “Fold Induction, 27-63 Assay, 33 uM” value came out at 591; the “27-63 assay Rel Max FI” value was 1.008; the half-maximal effective concentration (EC50) came out at 788 nM.

`COc1cccc(C(=O)NN(C(=O)c2cc(C)cc(Br)c2)C(C)(C)C)c1C` [RG-101353]: the “Fold Induction, 27-63 Assay, 3.3 uM” value is 3583; the “Fold Induction, 27-63 Assay, 33 uM” value stood at 3835; the “27-63 assay Rel Max FI” value was 1.168; the half-maximal effective concentration (EC50) turned out to be 266 nM.

For `CC(=O)c1cccc(C(=O)NN(C(=O)c2cc(C)cc(C)c2)C(C)(C)C)c1C` [RG-100814], the “Fold Induction, 27-63 Assay, 3.3 uM” value is 2441; the “Fold Induction, 27-63 Assay, 33 uM” value was determined as 2165; the “27-63 assay Rel Max FI” value was found to be 1.157; the EC50 was determined as 1500 nM.

For the compound `CCc1c(OC)cccc1C(=O)NN(C(=O)c1ccc(Cl)cc1OC)C(C)(C)C` [RG-101218], the “Fold Induction, 27-63 Assay, 3.3 uM” value was determined as 1097; the “Fold Induction, 27-63 Assay, 33 uM” value stood at 1223; the “27-63 assay Rel Max FI” value was found to be 0.645; the EC50 amounted to 128 nM.

For `CCc1ccc(C(=O)NN(C(=O)c2ccccc2[N+](=O)[O-])C(C)(C)C)cc1` [RG-101013], the “Fold Induction, 27-63 Assay, 3.3 uM” value is 927; the “Fold Induction, 27-63 Assay, 33 uM” value is 988; the “27-63 assay Rel Max FI” value amounted to 0.606; the half-maximal effective concentration (EC50) came out at 2140 nM.
